Experiments:
Assay type in all cases: cell-based
[1] = test system: PSA, CDC20, CENPF, MKI67 mRNA in LNCaP cells; assay: Quantitative PCR in LNCaP cells; conditions: for mRNA expression of PSA: LNCaP, 0.1, 1 μM, 5 nM DHT; for mRNA expressions of CDC20, CENPF and MKI67: LNCaP, compared with DHT
Experimental: Quantitative PCR (qPCR) for PSA, CDC20, CENPF, MKI67
LNCaP cells were cultured in medium containing 5% CSS in six -well plates and treated […]
where 5 nM DHT and DMSO were separately used in parallel as controls. After 48 h incubation, EZ-10 DNAaway RNA Mini -Preps Kit (Sangon Biotech) and Hifair® Ⅲ 1st Strand cDNA Synthesis SuperMix for qPCR (YEASEN) were employed for mRNA extraction and cDNA preparation, respectively. Then, the PCR SYBR Green Master Mix (YEASEN) was employed to amplify cDNA using the prime pairs in Table S5 . […]

GR = biological target: T1, GR (Homo sapiens, UniProt P04150); assay: Luciferase reporter assay for GR (HeLa cells); conditions: 10 μM, 1 nM dexamethasone
T1 construct: host or cells: HeLa
T1 sequence (P04150 1-777): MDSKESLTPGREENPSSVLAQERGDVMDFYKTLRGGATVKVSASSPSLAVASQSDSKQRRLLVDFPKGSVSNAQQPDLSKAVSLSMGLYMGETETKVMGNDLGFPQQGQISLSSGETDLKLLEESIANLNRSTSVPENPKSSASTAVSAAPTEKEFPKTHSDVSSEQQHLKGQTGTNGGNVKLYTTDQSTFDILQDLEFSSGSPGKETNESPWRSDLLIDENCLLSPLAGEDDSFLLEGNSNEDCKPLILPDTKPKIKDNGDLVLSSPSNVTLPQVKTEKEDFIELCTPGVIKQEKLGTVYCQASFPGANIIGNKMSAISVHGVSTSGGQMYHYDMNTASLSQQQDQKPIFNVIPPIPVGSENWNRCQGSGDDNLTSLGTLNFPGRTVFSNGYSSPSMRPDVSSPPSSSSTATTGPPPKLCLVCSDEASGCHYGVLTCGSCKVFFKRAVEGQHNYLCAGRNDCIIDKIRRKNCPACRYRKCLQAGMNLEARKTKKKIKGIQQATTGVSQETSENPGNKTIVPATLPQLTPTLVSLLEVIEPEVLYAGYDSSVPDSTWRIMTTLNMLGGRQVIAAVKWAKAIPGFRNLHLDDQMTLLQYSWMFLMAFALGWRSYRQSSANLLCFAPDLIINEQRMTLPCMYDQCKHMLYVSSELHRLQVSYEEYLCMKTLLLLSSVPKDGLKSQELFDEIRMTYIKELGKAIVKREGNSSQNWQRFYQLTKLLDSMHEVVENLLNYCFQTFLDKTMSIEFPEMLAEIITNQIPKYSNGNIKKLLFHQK
Experimental: calculating volume (V= 0.5 × L × W2). Finally, the mice were sacrificed and the tumors were harvested for hematoxylin and eosin (H&E) staining.
Luciferase Reporter Assays for PR, GR, and MR
Addgene), 24 ng pGL4.36[luc2P MMTV Hygro] (Promega) and 5 ng Renilla using HG- […]
Addgene), 24 ng pGL4.36[luc2P MMTV Hygro] (Promega) and 5 ng Renilla using lip3000 transfection reagent (#L3000075, Thermofisher) for 24 h. For MR induction, HEK293T (1 × 10^4 cells/well) were transfected with 71 ng pCMV-MR gifted by Liu et al. 28, 24 ng of pGL4.36[luc2P MMTV Hygro] (Promega) and 5 ng Renilla using lip3000 transfec tion reagent for 24 h. For the antagonistic models, 10 nM /well progesterone for PC3 cells , 1 nM/well dexamethasone for HeLa, and 5 nM/well aldosterone for HEK293T cells were added to stimulate the cells. Meanwhile, each cell line was treated […]
For the agonistic models, the cells were directly treated with the compounds without any hormones. […]
hormones progesterone, dexamethasone, and aldosterone were considered as agonists for PR, GR, and MR, respectively. The luciferase activities were assessed using the Dual-Glo Luciferase system (#E1910, Promega).
Cell Cycle and Apoptosis for LNCaP cells
LNCaP were cultured in 6-well plate with 5× 10^5 cells/well, after incubated at 37 °C for […]
Cell cycle were determined after 48 h incubation by Cell Cycle Staining Kit (#CCS012, MULTI SCIENCES) using […]

22RV1 = assay: Clonogenic (colony forming) assay, 22RV1; conditions: 2 and 20 μM, 16-18 days
Experimental: 1.5× 10^3 cells/well of LNCaP or 22RV1 were seeded into a 6-well plate. After 1 day
incubation, the medium of each well was removed and washed thrice using PBS. […]

| GR antagonistic activity (GR) | Compound | mRNA expression of PSA [1] | mRNA expressions of CDC20, CENPF and MKI67 [1] | colony formation of 22RV1 (22RV1) |
| --- | --- | --- | --- | --- |
| largely ineffective | CC(=O)Cc1nsc(NC(=O)c2cc(-c3cccc(C(F)(F)F)c3)oc2C)n1 [Compound M17-B15] | inhibited | significantly reduces | not |
| largely ineffective | CNC(=O)c1ccc(N2C(=S)N(c3ccc(C#N)c(C(F)(F)F)c3)C(=O)C2(C)C)cc1F [Enz, enzalutamide, reference compound] | inhibited | significantly reduces | not |

Source: article PMC10141604, “Small-Molecule Inhibition of Androgen Receptor Dimerization as a Strategy against Prostate Cancer” (ACS Central Science, 2023)
